Assay results taken from US6727275B2, “Pyrrolidinone derivatives” (UCB, S.A./N.V., priority 2001, dated 2004).

Target: T1, CCR2 (Homo sapiens, UniProt P41597)
T1 sequence (P41597 1-360 isoform P41597-2): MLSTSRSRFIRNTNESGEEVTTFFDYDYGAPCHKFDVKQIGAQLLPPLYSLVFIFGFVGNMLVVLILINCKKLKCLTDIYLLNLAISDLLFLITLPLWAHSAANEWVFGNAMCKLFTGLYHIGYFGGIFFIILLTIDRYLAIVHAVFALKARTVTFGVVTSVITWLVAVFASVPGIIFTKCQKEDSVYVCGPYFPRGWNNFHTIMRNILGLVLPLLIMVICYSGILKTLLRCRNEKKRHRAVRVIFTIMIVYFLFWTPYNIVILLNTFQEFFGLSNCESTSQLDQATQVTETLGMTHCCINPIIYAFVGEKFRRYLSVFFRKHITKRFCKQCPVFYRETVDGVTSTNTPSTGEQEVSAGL
Assay: Binding assay: inhibition of 125I-MCP-1 binding to THP-1 cells
Set-up: CCR2 is also expressed in the human monocytic cell line THP-1; endogenous in cells; host or cells: THP-1 (human monocytic cell line), whole cells
Conditions: THP-1 cells, 0.1 nM 125I-MCP-1, 1 hr at room temperature; read-out: Inhibition of 125I-MCP-1 binding to THP-1 cells, IC50
Protocol: Antagonism of the CCR2 receptor is determined by a binding assay using the human monocytic cell line THP-1. Cells are suspended in assay buffer (RPMI+1% BSA+25 mM HEPES) at 3×10^6 cells/ml and an aliquot (180 μl) added to a 0.5 ml siliconized Eppendorf tube. […] After incubation for 1 hr at room temperature, the cell suspension is centrifuged through oil and the cell pellets counted to quantitate cell-bound ligand. Nonspecific (NS) binding of radioligand is determined by the addition of 100 nM cold MCP-1. Control binding is determined by the addition of buffer without compound.

IC50 [µM] | SMILES
≤ 5 | CC(=O)C1=C(O)C(=O)N(c2ccc(Cl)c([N+](=O)[O-])c2)C1C1CCCCC1 (racemic) [Compound 66, 4-acetyl-1-(4-chloro-3-nitrophenyl)-5-cyclohexyl-3-hydroxy-1,5-dihydro-2H-pyrrol-2-one]
≤ 5 | CC(=O)C1=C(O)C(=O)N(c2ccc(Cl)cn2)C1C1CCCCC1 (racemic) [Compound 172, 4-acetyl-1-(5-chloro-2-pyridinyl)-5-cyclohexyl-3-hydroxy-1,5-dihydro-2H-pyrrol-2-one]
≤ 5 | Cc1ccc(N2C(=O)C(O)=C(C(=O)C(C)(C)C)C2C2CCCCC2)cc1 (racemic) [Compound 41, 5-cyclohexyl-4-(2,2-dimethylpropanoyl)-3-hydroxy-1-(4-methylphenyl)-1,5-dihydro-2H-pyrrol-2-one]
≤ 5 | C=C1CCC(C2C(C(C)=O)=C(O)C(=O)N2c2ccc(Cl)cc2F)CC1 (racemic) [Compound 153, 4-acetyl-1-(4-chloro-2-fluorophenyl)-3-hydroxy-5-(4-methylenecyclohexyl)-1,5-dihydro-2H-pyrrol-2-one]
≤ 5 | CC(=O)C1=C(O)C(=O)N(c2cccc(Cl)c2)C1C1CCCCC1 (racemic) [Compound 43, 4-acetyl-1-(3-chlorophenyl)-5-cyclohexyl-3-hydroxy-1,5-dihydro-2H-pyrrol-2-one]
≤ 5 | CC(=O)C1=C(O)C(=O)N(c2ccc(C)cc2)C1C1CC2C=CC1C2 (centres unmarked) [Compound 79, 4-acetyl-5-bicyclo[2.2.1]hept-5-en-2-yl-3-hydroxy-1-(4-methylphenyl)-1,5-dihydro-2H-pyrrol-2-one]
≤ 5 | CC(=O)C1=C(O)C(=O)N(c2ccc(Cl)cc2F)[C@@H]1C1CCCC1 [Compound 129, (R)-4-acetyl-1-(4-chloro-2-fluorophenyl)-5-cyclopentyl-3-hydroxy-1,5-dihydro-2H-pyrrol-2-one]
≤ 5 | CC(=O)C1=C(O)C(=O)N(c2ccc(C)cc2)C1C1CCCCCC1 (racemic) [Compound 68, 4-acetyl-5-cycloheptyl-3-hydroxy-1-(4-methylphenyl)-1,5-dihydro-2H-pyrrol-2-one]
≤ 5 | CCCC1C(C(C)=O)=C(O)C(=O)N1c1ccc(C)c(Cl)c1 (racemic) [Compound 76, 4-acetyl-1-(3-chloro-4-methylphenyl)-3-hydroxy-5-propyl-1,5-dihydro-2H-pyrrol-2-one]
≤ 5 | CNC(=O)C1=C(O)C(=O)N(c2ccc(C)cc2)C1C1CCCCC1 (racemic) [Compound 126, 2-cyclohexyl-4-hydroxy-N-methyl-1-(4-methylphenyl)-5-oxo-2,5-dihydro-1H-pyrrole-3-carboxamide]
≤ 5 | C=C1CCC(C2C(C(C)=O)=C(O)C(=O)N2c2ccc(Cl)cc2)CC1 (racemic) [Compound 127, 4-acetyl-1-(4-chlorophenyl)-3-hydroxy-5-(4-methylenecyclohexyl)-1,5-dihydro-2H-pyrrol-2-one]
≤ 5 | CC(=O)C1=C(O)C(=O)N(c2ccc(C)cc2)C1C1CCCC1 (racemic) [Compound 56, 4-acetyl-5-cyclopentyl-3-hydroxy-1-(4-methylphenyl)-1,5-dihydro-2H-pyrrol-2-one]
≤ 5 | Cc1ccc(N2C(=O)C(O)=C(C(N)=O)C2C2CCCCC2)cc1 (racemic) [Compound 131, 2-cyclohexyl-4-hydroxy-1-(4-methylphenyl)-5-oxo-2,5-dihydro-1H-pyrrole-3-carboxamide]
≤ 5 | CCC(CC)C1C(C(C)=O)=C(O)C(=O)N1c1ccc(C)cc1 (racemic) [Compound 13, 4-acetyl-5-(1-ethylpropyl)-3-hydroxy-1-(4-methylphenyl)-1,5-dihydro-2H-pyrrol-2-one]
≤ 5 | CC(=O)C1=C(O)C(=O)N(c2cccc(C)c2)C1C1CCCCC1 (racemic) [Compound 16, 4-acetyl-5-cyclohexyl-3-hydroxy-1-(3-methylphenyl)-1,5-dihydro-2H-pyrrol-2-one]
≤ 5 | COC1CCC(C2C(C(C)=O)=C(O)C(=O)N2c2ccc(Cl)cc2)CC1 (racemic) [Compound 132, 4-acetyl-1-(4-chlorophenyl)-3-hydroxy-5-(4-methoxycyclohexyl)-1,5-dihydro-2H-pyrrol-2-one]

IC50 [µM] | SMILES
≤ 5 | CC(=O)C1=C(O)C(=O)N(c2ccc(Cl)cc2)C1C1CCCC1 (racemic) [Compound 118, 4-acetyl-1-(4-chlorophenyl)-5-cyclopentyl-3-hydroxy-1,5-dihydro-2H-pyrrol-2-one]
≤ 5 | CCc1ccc(N2C(=O)C(O)=C(C(C)=O)C2C2CCCCC2)cc1 (racemic) [Compound 77, 4-acetyl-5-cyclohexyl-1-(4-ethylphenyl)-3-hydroxy-1,5-dihydro-2H-pyrrol-2-one]
≤ 5 | CC(=O)C1=C(O)C(=O)N(c2ccc(C)c(C)c2)C1C1CCCCC1 (racemic) [Compound 65, 4-acetyl-5-cyclohexyl-1-(3,4-dimethylphenyl)-3-hydroxy-1,5-dihydro-2H-pyrrol-2-one]
≤ 5 | CC(=O)C1=C(O)C(=O)N(c2ccc(C)cc2F)C1C1CCCCC1 (racemic) [Compound 54, 4-acetyl-5-cyclohexyl-1-(2-fluoro-4-methylphenyl)-3-hydroxy-1,5-dihydro-2H-pyrrol-2-one]
≤ 5 | CSC1=C(O)C(=O)N(c2ccc(Cl)cc2)C1C1CCCCC1 (racemic) [Compound 128, 1-(4-chlorophenyl)-5-cyclohexyl-3-hydroxy-4-(methylthio)-1,5-dihydro-2H-pyrrol-2-one]
≤ 5 | CC(=O)C1=C(O)C(=O)N(c2ccc(Cl)cc2)C1C1CC2C=CC1C2 (centres unmarked) [Compound 121, 4-acetyl-5-bicyclo[2.2.1]hept-5-en-2-yl-1-(4-chlorophenyl)-3-hydroxy-1,5-dihydro-2H-pyrrol-2-one]
≤ 5 | CC(=O)C1=C(O)C(=O)N(c2ccc(Br)cc2)C1C1CCCCC1 (racemic) [Compound 17, 4-acetyl-1-(4-bromophenyl)-5-cyclohexyl-3-hydroxy-1,5-dihydro-2H-pyrrol-2-one]
≤ 5 | CC(=O)C1=C(O)C(=O)N(c2ccc(C)cc2)C1CC(C)(C)C (racemic) [Compound 78, 4-acetyl-3-hydroxy-1-(4-methylphenyl)-5-neopentyl-1,5-dihydro-2H-pyrrol-2-one]
≤ 5 | CC(=O)C1=C(O)C(=O)N(c2cccc(Br)c2)C1C1CCCCC1 (racemic) [Compound 44, 4-acetyl-1-(3-bromophenyl)-5-cyclohexyl-3-hydroxy-1,5-dihydro-2H-pyrrol-2-one]
≤ 5 | CC(=O)C1=C(O)C(=O)N(c2ccc(Br)cc2F)C1C1CCCCC1 (racemic) [Compound 142, 4-acetyl-1-(4-bromo-2-fluorophenyl)-5-cyclohexyl-3-hydroxy-1,5-dihydro-2H-pyrrol-2-one]
≤ 5 | CC(=O)C1=C(O)C(=O)N(c2c(F)cc(Br)cc2F)C1C1CCCCC1 (racemic) [Compound 154, 4-acetyl-1-(4-bromo-2,6-difluorophenyl)-5-cyclohexyl-3-hydroxy-1,5-dihydro-2H-pyrrol-2-one]
≤ 5 | CC(=O)C1=C(O)C(=O)N(Cc2ccccc2)C1c1ccco1 (racemic) [Compound 8, 4-acetyl-1-benzyl-5-(2-furyl)-3-hydroxy-1,5-dihydro-2H-pyrrol-2-one]
≤ 5 | CC(=O)C1=C(O)C(=O)N(c2ccc(Cl)cc2)C1C1CC(C)(C)CC(C)(C)C1 (racemic) [Compound 145, 4-acetyl-1-(4-chlorophenyl)-3-hydroxy-5-(3,3,5,5-tetramethylcyclohexyl)-1,5-dihydro-2H-pyrrol-2-one]
≤ 5 | CC(=O)C1=C(O)C(=O)N(c2c(F)cc(Cl)cc2F)[C@H]1C1CCCCC1 (stereo in doubt) [Compound 147, (S)-4-acetyl-1-(4-chloro-2,6-difluorophenyl)-5-cyclohexyl-3-hydroxy-1,5-dihydro-2H-pyrrol-2-one]
≤ 5 | CC(=O)C1=C(O)C(=O)N(c2ccc(C)cc2)C1C1C=CCCC1 (centres unmarked) [Compound 50, 4-acetyl-5-(cyclohex-2-en-1-yl)-3-hydroxy-1-(4-methylphenyl)-1,5-dihydro-2H-pyrrol-2-one]
≤ 5 | CC(=O)C1=C(O)C(=O)N(c2ccc(F)cc2F)C1C1CCCCC1 (racemic) [Compound 62, 4-acetyl-5-cyclohexyl-1-(2,4-difluorophenyl)-3-hydroxy-1,5-dihydro-2H-pyrrol-2-one]
